Drawing on patent US20240140938A1, “PREPARATION OF TETRAHYDROINDAZOLE DERIVATIVES AS NOVEL DIACYLGLYCERIDE O-ACYLTRANSFERASE 2 INHIBITORS” (MERCK SHARP & DOHME LLC, priority 2020, published 2024), this text covers IC50 for 21 molecules.

Usually IC50 stands for the concentration at which inhibition is half-maximal.

The target of the assay is human DGAT2 (hDGAT2) (Homo sapiens (Human), UniProt Q96PD7). Description: DGAT2 Enzymatic Activity Assay. In kind it is biochemical. To be noted: hDGAT2 Sf-9 membrane prep; 13C18-triolein product by LC/MS/MS; 25 μM diolein, 5 μM 13C oleoyl-CoA. Here is the method: Sf-9 insect cells were maintained in Grace's insect cell culture medium with 10% heated-inactivated fetal bovine serum, 1% Pluronic F-68 and 0.14 μg/ml Kanamycine sulfate at 27° C. in a shaker incubator. After infection with untagged baculovirus expressing human DGAT2 (hDGAT2) at multiplicity of infection (MOI) 3 for 48 hours, cells were harvested. Cell pellets were suspended in buffer containing 10 mM Tris-HCl pH 7.5, 1 mM EDTA, 250 mM sucrose and Complete Protease Inhibitor Cocktail (Sigma Aldrich), and sonicated on ice. Cell debris were removed by centrifugation at 2000×g for 15 minutes. Membrane fractions were isolated by ultracentrifugation (100,000×g), resuspended in the same buffer, and frozen (−80° C.) for later use. The protein concentration was determined with the Pierce™ BCA Protein Assay Kit (Thermo Fisher Scientific).
Sequence of human DGAT2 (hDGAT2) (Q96PD7 whole entry): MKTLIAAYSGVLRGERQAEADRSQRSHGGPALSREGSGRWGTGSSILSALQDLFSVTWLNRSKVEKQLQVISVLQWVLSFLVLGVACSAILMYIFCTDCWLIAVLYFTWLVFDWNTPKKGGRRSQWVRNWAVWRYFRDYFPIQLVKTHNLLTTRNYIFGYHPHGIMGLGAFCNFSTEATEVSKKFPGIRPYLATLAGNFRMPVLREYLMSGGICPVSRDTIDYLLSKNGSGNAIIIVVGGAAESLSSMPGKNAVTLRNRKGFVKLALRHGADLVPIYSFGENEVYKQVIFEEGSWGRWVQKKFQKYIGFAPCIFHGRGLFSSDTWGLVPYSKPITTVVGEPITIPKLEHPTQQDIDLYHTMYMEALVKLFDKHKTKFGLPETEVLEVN
LC/MS/MS analyses were performed using Thermal Fisher's LX4-TSQ Vantage system. This system consists of an Agilent binary high-performance liquid chromatography (HPLC) pump and a TSQ Vantage triple quadrupole MS/MS instrument. For each sample, 2 μL samples from the top organic layer of in-plate liquid-liquid extraction were injected onto a Thermo Betabasic C4 column (2.1 mm×20 mm, 5 μm particle size). The samples were then eluted using the following conditions; mobile phase: Isopropanol: acetonitrile/10 mM ammonium formate=50/35/15 (v/v/v), flow rate: 0.8 mL/min, temperature: 25° C. Data was acquired in positive mode using a heated electrospray ionization (HESI) interface. […] The peak area was integrated by Xcalibur Quan software. The ratio between the ^13C18triolein generated in the reaction and spiked in internal standard ^13C21-triolein was used to generate percentage inhibition and IC50 values. Compound percentage inhibition was calculated by the following formula: Inhibition %=1−[(compound response−low control)/(high control−low control)]×100%.
DGAT2 activity was determined by measuring the amount of enzymatic product ^13C18-triolein (^13C-1,2,3-Tri(cis-9-octadecenoyl)glycerol) using the membrane prep mentioned above. The assay was carried out in ABgene 384-well assay plates in a final volume of 25 μL at rt.
As for `CC(C)(NC(=O)[C@@H]1CCc2c(-c3cccc(OC(F)F)c3)nn(C3CCOCC3)c2C1)c1ccc(C(F)(F)F)nc1` [Example 27, (R)-3-(3-(difluoromethoxy)phenyl)-1-(tetrahydro-2H-pyran-4-yl)-N-(2-(6-(trifluoromethyl)pyridin-3-yl)propan-2-yl)-4,5,6,7-tetrahydro-1H-indazole-6-carboxamide], the IC50 is 128 nM.
Turning to `CC(C)n1nc(-c2cc(OC(F)F)ccc2F)c2c1C[C@H](C(=O)N[C@@]1(C)CCS(=O)(=O)C1)CC2` [Example 28, (R)-3-(5-(difluoromethoxy)-2-fluorophenyl)-1-isopropyl-N-((S)-3-methyl-1,1-dioxidotetrahydrothiophen-3-yl)-4,5,6,7-tetrahydro-1H-indazole-6-carboxamide], half-maximal inhibition (IC50) required 30.1 nM.
Turning to `CC(C)n1nc(-c2cc(OC(F)F)ccc2F)c2c1C[C@H](C(=O)N[C@]1(C)CCS(=O)(=O)C1)CC2` [Example 29, (R)-3-(5-(difluoromethoxy)-2-fluorophenyl)-1-isopropyl-N-((R)-3-methyl-1,1-dioxidotetrahydrothiophen-3-yl)-4,5,6,7-tetrahydro-1H-indazole-6-carboxamide], the IC50 was found to be 60.1 nM.
In the case of `CC(C)n1nc(-c2cc(OC(F)F)ccc2F)c2c1C[C@H](C(=O)NC1(C)CCS(=O)(=O)CC1)CC2` [Example 30, (R)-3-(5-(difluoromethoxy)-2-fluorophenyl)-1-isopropyl-N-(4-methyl-1,1-dioxidotetrahydro-2H-thiopyran-4-yl)-4,5,6,7-tetrahydro-1H-indazole-6-carboxamide] it was 5.5 nM.
`CC(C)n1nc(-c2cccc(OC(F)F)c2)c2c1C[C@H](C(=O)NC1(C)CCS(=O)(=O)CC1)CC2` [Example 31, (R)-3-(3-(difluoromethoxy)phenyl)-1-isopropyl-N-(4-methyl-1,1-dioxidotetrahydro-2H-thiopyran-4-yl)-4,5,6,7-tetrahydro-1H-indazole-6-carboxamide] registered an IC50 of 24.7 nM.
`CC(C)n1nc(-c2cccc(OC3CC3)c2)c2c1C[C@H](C(=O)NC1(C)CCS(=O)(=O)CC1)CC2` [Example 32, (R)-3-(3-cyclopropoxyphenyl)-1-isopropyl-N-(4-methyl-1,1-dioxidotetrahydro-2H-thiopyran-4-yl)-4,5,6,7-tetrahydro-1H-indazole-6-carboxamide] showed an IC50 of 29.1 nM.
`CCOc1cccc(-c2nn(C(C)C)c3c2CC[C@@H](C(=O)NC2(C)CCS(=O)(=O)CC2)C3)c1` [Example 33, (R)-3-(3-ethoxyphenyl)-1-isopropyl-N-(4-methyl-1,1-dioxidotetrahydro-2H-thiopyran-4-yl)-4,5,6,7-tetrahydro-1H-indazole-6-carboxamide] gave an IC50 of 3.3 nM.
Under `CCOc1cc(-c2nn(C(C)C)c3c2CC[C@@H](C(=O)NC2(C)CS(=O)(=O)C2)C3)c(F)cn1` [Example 34, (R)-3-(2-ethoxy-5-fluoropyridin-4-yl)-1-isopropyl-N-(3-methyl-1,1-dioxidothietan-3-yl)-4,5,6,7-tetrahydro-1H-indazole-6-carboxamide] stands 117 nM; under `CC(C)n1nc(-c2cccc(OCC(F)(F)F)c2)c2c1C[C@H](C(=O)N[C@@]1(C)CCS(=O)(=O)C1)CC2` [Example 35, (R)-1-isopropyl-N-((S)-3-methyl-1,1-dioxidotetrahydrothiophen-3-yl)-3-(3-(2,2,2-trifluoroethoxy)phenyl)-4,5,6,7-tetrahydro-1H-indazole-6-carboxamide], 35.2 nM; under `CC(C)n1nc(-c2cccc(OC(F)(F)C(F)F)c2)c2c1C[C@H](C(=O)NC1(C)CCS(=O)(=O)CC1)CC2` [Example 36, (R)-1-isopropyl-N-(4-methyl-1,1-dioxidotetrahydro-2H-thiopyran-4-yl)-3-(3-(1,1,2,2-tetrafluoroethoxy)phenyl)-4,5,6,7-tetrahydro-1H-indazole-6-carboxamide], 353 nM.
In the case of `CC(C)n1nc(-c2cc(OC3CC3)ncc2F)c2c1C[C@H](C(=O)NC1(C)CCS(=O)(=O)CC1)CC2` [Example 37, (R)-3-(2-cyclopropoxy-5-fluoropyridin-4-yl)-1-isopropyl-N-(4-methyl-1,1-dioxidotetrahydro-2H-thiopyran-4-yl)-4,5,6,7-tetrahydro-1H-indazole-6-carboxamide] it was 93.2 nM.
Under `CC(C)Oc1cc(-c2nn(C(C)C)c3c2CC[C@@H](C(=O)NC2(C)CCS(=O)(=O)CC2)C3)c(F)cn1` [Example 38, (R)-3-(5-fluoro-2-isopropoxypyridin-4-yl)-1-isopropyl-N-(4-methyl-1,1-dioxidotetrahydro-2H-thiopyran-4-yl)-4,5,6,7-tetrahydro-1H-indazole-6-carboxamide] stands 74.3 nM; under `CCOc1cc(-c2nn(C(C)C)c3c2CC[C@@H](C(=O)NC2(C)CCS(=O)(=O)CC2)C3)c(Cl)cn1` [Example 39, (R)-3-(5-chloro-2-ethoxypyridin-4-yl)-1-isopropyl-N-(4-methyl-1,1-dioxidotetrahydro-2H-thiopyran-4-yl)-4,5,6,7-tetrahydro-1H-indazole-6-carboxamide], 7.7 nM.
In the case of `CC(C)n1nc(-c2cc(OCC(F)F)ncc2F)c2c1C[C@H](C(=O)NC1(C)CCS(=O)(=O)CC1)CC2` [Example 40, (R)-3-(2-(2,2-difluoroethoxy)-5-fluoropyridin-4-yl)-1-isopropyl-N-(4-methyl-1,1-dioxidotetrahydro-2H-thiopyran-4-yl)-4,5,6,7-tetrahydro-1H-indazole-6-carboxamide], the IC50 worked out at 4.6 nM.
Under `CC(C)n1nc(-c2cc(OC(F)F)ncc2F)c2c1C[C@H](C(=O)N[C@@]1(C)CCS(=O)(=O)C1)CC2` [Example 41, (R)-3-(2-(difluoromethoxy)-5-fluoropyridin-4-yl)-1-isopropyl-N-((S)-3-methyl-1,1-dioxidotetrahydrothiophen-3-yl)-4,5,6,7-tetrahydro-1H-indazole-6-carboxamide] stands 139 nM; under `CC(C)n1nc(-c2cc(OC(F)F)cnc2C(F)F)c2c1C[C@H](C(=O)NC1(C)CCS(=O)(=O)CC1)CC2` [Example 42, (R)-3-(5-(difluoromethoxy)-2-(difluoromethyl)pyridin-3-yl)-1-isopropyl-N-(4-methyl-1,1-dioxidotetrahydro-2H-thiopyran-4-yl)-4,5,6,7-tetrahydro-1H-indazole-6-carboxamide], 296 nM.
On to `CC(C)n1nc(-c2cc(OCC(F)(F)F)ncc2F)c2c1C[C@H](C(=O)NC1(C)CS(=O)(=O)C1)CC2` [Example 43, (R)-3-(5-fluoro-2-(2,2,2-trifluoroethoxy)pyridin-4-yl)-1-isopropyl-N-(3-methyl-1,1-dioxidothietan-3-yl)-4,5,6,7-tetrahydro-1H-indazole-6-carboxamide], for which the midpoint of inhibition, the IC50, lay at 14.1 nM.
Under `CC(C)n1nc(-c2cc(OCC(F)(F)F)ncc2F)c2c1C[C@H](C(=O)N[C@@]1(C)CCS(=O)(=O)C1)CC2` [Example 44, (R)-3-(5-fluoro-2-(2,2,2-trifluoroethoxy)pyridin-4-yl)-1-isopropyl-N-((S)-3-methyl-1,1-dioxidotetrahydrothiophen-3-yl)-4,5,6,7-tetrahydro-1H-indazole-6-carboxamide] stands 5.3 nM.
Under `CC(C)n1nc(-c2cc(OCC(F)(F)F)ncc2F)c2c1C[C@H](C(=O)NC1(C)CCS(=O)(=O)CC1)CC2` [Example 45, (R)-3-(5-fluoro-2-(2,2,2-trifluoroethoxy)pyridin-4-yl)-1-isopropyl-N-(4-methyl-1,1-dioxidotetrahydro-2H-thiopyran-4-yl)-4,5,6,7-tetrahydro-1H-indazole-6-carboxamide] stands 18.4 nM; under `[2H]C([2H])([2H])C([2H])(n1nc(-c2cc(OC(F)F)ccc2F)c2c1C[C@H](C(=O)NC1(C)CCS(=O)(=O)CC1)CC2)C([2H])([2H])[2H]` [Example 46, (R)-3-(5-(difluoromethoxy)-2-fluorophenyl)-N-(4-methyl-1,1-dioxidotetrahydro-2H-thiopyran-4-yl)-1-(propan-2-yl-d7)-4,5,6,7-tetrahydro-1H-indazole-6-carboxamide], 37.9 nM; under `[2H]C([2H])([2H])C([2H])(n1nc(-c2cc(OCC)ncc2F)c2c1C[C@H](C(=O)NC1(C)CCS(=O)(=O)CC1)CC2)C([2H])([2H])[2H]` [Example 47, (R)-3-(2-ethoxy-5-fluoropyridin-4-yl)-N-(4-methyl-1,1-dioxidotetrahydro-2H-thiopyran-4-yl)-1-(propan-2-yl-d7)-4,5,6,7-tetrahydro-1H-indazole-6-carboxamide], 65.9 nM.
